pKd: −log10 of the molar value.
How the values were obtained:
[1] = target: T1, MLKL (Homo sapiens, UniProt Q8NB16); assay: MLKL degradation assay in HepG2 cell line (western blot); assay type: cell-based; parameters: endogenous in cells; host or cells: HepG2 or HaCaT; conditions: cell line not given; for Degradation assay (Degradation %) 1 μM: compound 1 μM; for Degradation assay (Degradation %) 10 μM: compound 10 μM
T1 sequence (Q8NB16 1-471): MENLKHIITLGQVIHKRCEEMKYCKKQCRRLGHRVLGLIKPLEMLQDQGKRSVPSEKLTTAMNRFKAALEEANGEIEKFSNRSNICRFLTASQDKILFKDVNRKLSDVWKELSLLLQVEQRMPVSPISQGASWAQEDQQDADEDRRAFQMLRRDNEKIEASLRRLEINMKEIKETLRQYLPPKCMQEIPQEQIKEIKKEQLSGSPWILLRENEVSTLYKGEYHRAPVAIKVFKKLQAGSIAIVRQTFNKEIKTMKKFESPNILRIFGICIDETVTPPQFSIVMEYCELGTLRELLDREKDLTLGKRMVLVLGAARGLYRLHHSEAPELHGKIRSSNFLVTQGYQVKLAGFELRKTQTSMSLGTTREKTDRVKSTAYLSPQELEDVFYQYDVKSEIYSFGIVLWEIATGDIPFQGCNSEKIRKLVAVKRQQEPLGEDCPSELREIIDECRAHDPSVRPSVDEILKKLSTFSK
How it was run: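 Cells seeded, next day medium swapped for compound-containing medium (final 1 or 10 μM) and incubated 20-24 h at 37 °C. Lysates in RIPA with protease/phosphatase inhibitors were protein-matched by BCA, run on SDS-PAGE and immunoblotted for MLKL.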

[2] = system: FADD−/− Jurkat cells; assay: Necroptosis inhibition assay, TNF-α-induced necroptosis (CellTiter-Glo 2.0); assay type: cell-based, human; conditions: TNF-α 15 ng/mL; for Necroptosis inhibition assay (Rescue %) 1 μM: compound 1 μM; for Necroptosis inhibition assay (Rescue %) 10 μM: compound 10 μM
How it was run: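 Luminescent ATP measurement gave viability, from which cytotoxicity and necroptosis inhibition rate were derived. Before that, cells (5.0×10^5 cells/mL) saw compound at 0.1, 1 or 10 μM final for 30 minutes at room temperature, then TNF-α (15 ng/mL final) for 20 to 24 hours at 37° C.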

[3] = target: T1, MLKL; assay: Measurement of binding affinity with MLKL receptor (competitive binding assay, Kd); parameters: made in house; host or cells: HEK 293 cell line (T7 phage in E. coli BL21-derived host is also described)
How it was run: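 Kd comes from a bead-based competition format: compound-dependent loss of DNA-tagged, HEK 293-expressed MLKL capture, measured as eluate kinase by qPCR. Final DMSO is 0.9%.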

Degradation assay (Degradation %) 1 μM [1] [%] | Degradation assay (Degradation %) 10 μM [1] [%] | pKd [3] | Structure (SMILES) | Necroptosis inhibition assay (Rescue %) 1 μM [2] [%] | Necroptosis inhibition assay (Rescue %) 10 μM [2] [%]
33.12 | 18.24 | 8.17 | Nc1ncc(-c2cnn(C3CCN(C(=O)COCCOCCNC(=O)C4CCN(c5cccc6c5C(=O)N(C5CCC(=O)NC5=O)C6=O)CC4)CC3)c2)nc1C(=O)O[C@@H](C(=O)Nc1ccc(F)cc1)c1ccccc1 (stereo partly drawn) [TDH-194, (R)-2-((4-fluorophenyl)amino)-2-oxo-1-phenylethyl 3-amino-6-(1-(1-(2-(2-(2-(1-(2-(2,6-dioxopiperidin-3-yl)-1,3-dioxoisoindolin-4-yl)piperidine-4-carboxamido)ethoxy)ethoxy)acetyl)piperidin-4-yl)-1H-pyrazol-4-yl)pyrazine-2-carboxylate] | 67.94 | 58.3
63.85 | 29.78 | 8.16 | Nc1ncc(-c2cnn(C3CCN(C(=O)COCCOCCNC(=O)C4CCN(c5ccc6c(c5)C(=O)N(C5CCC(=O)NC5=O)C6=O)CC4)CC3)c2)nc1C(=O)O[C@@H](C(=O)Nc1ccc(F)cc1)c1ccccc1 (stereo partly drawn) [TDH-195, (R)-2-((4-fluorophenyl)amino)-2-oxo-1-phenylethyl 3-amino-6-(1-(1-(2-(2-(2-(1-(2-(2,6-dioxopiperidin-3-yl)-1,3-dioxoisoindolin-5-yl)piperidine-4-carboxamido)ethoxy)ethoxy)acetyl)piperidin-4-yl)-1H-pyrazol-4-yl)pyrazine-2-carboxylate] | 80.66 | 39.24
62.01 | 51.12 | 9.01 | Nc1ncc(-c2cnn(C3CCN(CCC4CCN(C(=O)C5CCN(c6cccc7c6C(=O)N(C6CCC(=O)NC6=O)C7=O)CC5)CC4)CC3)c2)nc1C(=O)O[C@@H](C(=O)Nc1ccc(F)cc1)c1ccccc1 (stereo partly drawn) [TDH-196, (R)-2-((4-fluorophenyl)amino)-2-oxo-1-phenylethyl 3-amino-6-(1-(1-(2-(1-(1-(2-(2,6-dioxopiperidin-3-yl)-1,3-dioxoisoindolin-4-yl)piperidine-4-carbonyl)piperidin-4-yl)ethyl)piperidin-4-yl)-1H-pyrazol-4-yl)pyrazine-2-carboxylate] | 60.75 | 34
58.62 | 23.6 | 9.13 | Nc1ncc(-c2cnn(C3CCN(CCC4CCN(C(=O)C5CCN(c6ccc7c(c6)C(=O)N(C6CCC(=O)NC6=O)C7=O)CC5)CC4)CC3)c2)nc1C(=O)O[C@@H](C(=O)Nc1ccc(F)cc1)c1ccccc1 (stereo partly drawn) [TDH-197, (R)-2-((4-fluorophenyl)amino)-2-oxo-1-phenylethyl 3-amino-6-(1-(1-(2-(1-(1-(2-(2,6-dioxopiperidin-3-yl)-1,3-dioxoisoindolin-5-yl)piperidine-4-carbonyl)piperidin-4-yl)ethyl)piperidin-4-yl)-1H-pyrazol-4-yl)pyrazine-2-carboxylate] | 56.07 | 32.02

Continued, compound first:

Structure (SMILES) | Degradation assay (Degradation %) 1 μM [1] [%] | Degradation assay (Degradation %) 10 μM [1] [%] | pKd [3] | Necroptosis inhibition assay (Rescue %) 1 μM [2] [%] | Necroptosis inhibition assay (Rescue %) 10 μM [2] [%]
Nc1ncc(-c2cnn(C3CCN(CCCCCCCCCCNc4ccc5nnn(C6CCC(=O)NC6=O)c(=O)c5c4)CC3)c2)nc1C(=O)O[C@@H](C(=O)Nc1ccc(F)cc1)c1ccccc1 (stereo partly drawn) [TDH-179, (R)-2-((4-fluorophenyl)amino)-2-oxo-1-phenylethyl 3-amino-6-(1-(1-(10-((3-(2,6-dioxopiperidin-3-yl)-4-oxo-3,4-dihydrobenzo[d][1,2,3]triazin-6-yl)amino)decyl)piperidin-4-yl)-1H-pyrazol-4-yl)pyrazine-2-carboxylate] | 78.61 | 61.56 | 7.51 | 23.48 | 14.8
Nc1ncc(-c2cnn(C3CCN(CC4CCN(C(=O)COc5cccc6c5C(=O)N(C5CCC(=O)NC5=O)C6=O)CC4)CC3)c2)nc1C(=O)N[C@@H](C(=O)Nc1ccc(F)cc1)c1ccccc1 (stereo partly drawn) [TDH-186, 3-amino-6-(1-(1-((1-(2-((2-(2,6-dioxopiperidin-3-yl)-1,3-dioxoisoindolin-4-yl)oxy)acetyl)piperidin-4-yl)methyl)piperidin-4-yl)-1H-pyrazol-4-yl)-N-((R)-2-((4-fluorophenyl)amino)-2-oxo-1-phenylethyl)pyrazine-2-carboxamide] | 14.8 | 21.54 | 7.12 | 35.73 | 35.74
Nc1ncc(-c2cnn(C3CCN(CC4CCN(C(=O)COc5ccc6c(c5)C(=O)N(C5CCC(=O)NC5=O)C6=O)CC4)CC3)c2)nc1C(=O)N[C@@H](C(=O)Nc1ccc(F)cc1)c1ccccc1 (stereo partly drawn) [TDH-187, 3-amino-6-(1-(1-((1-(2-((2-(2,6-dioxopiperidin-3-yl)-1,3-dioxoisoindolin-5-yl)oxy)acetyl)piperidin-4-yl)methyl)piperidin-4-yl)-1H-pyrazol-4-yl)-N-((R)-2-((4-fluorophenyl)amino)-2-oxo-1-phenylethyl)pyrazine-2-carboxamide] | 27.67 |  | 6.82 | 28.68 | 29.31
Nc1ncc(-c2cnn(C3CCN(C(=O)COCCOCCNC(=O)COc4cccc5c4C(=O)N(C4CCC(=O)NC4=O)C5=O)CC3)c2)nc1C(=O)O[C@@H](C(=O)Nc1ccc(F)cc1)c1ccccc1 (stereo partly drawn) [TDH-188, (R)-2-((4-fluorophenyl)amino)-2-oxo-1-phenylethyl 3-amino-6-(1-(1-(2-(2-(2-(2-((2-(2,6-dioxopiperidin-3-yl)-1,3-dioxoisoindolin-4-yl)oxy)acetamido)ethoxy)ethoxy)acetyl)piperidin-4-yl)-1H-pyrazol-4-yl)pyrazine-2-carboxylate] | 7.04 | 5.3 | 8.46 | 45.68 | 42.08
Nc1ncc(-c2cnn(C3CCN(C(=O)COCCOCCNC(=O)CNc4cccc5c4C(=O)N(C4CCC(=O)NC4=O)C5=O)CC3)c2)nc1C(=O)O[C@@H](C(=O)Nc1ccc(F)cc1)c1ccccc1 (stereo partly drawn) [TDH-190, (R)-2-((4-fluorophenyl)amino)-2-oxo-1-phenylethyl 3-amino-6-(1-(1-(2-(2-(2-(2-((2-(2,6-dioxopiperidin-3-yl)-1,3-dioxoisoindolin-4-yl)amino)acetamido)ethoxy)ethoxy)acetyl)piperidin-4-yl)-1H-pyrazol-4-yl)pyrazine-2-carboxylate] |  | 4.57 | 7.89 | 39.55 | 43.59
Nc1ncc(-c2cnn(C3CCN(C(=O)COCCOCCNC(=O)CNc4ccc5c(c4)C(=O)N(C4CCC(=O)NC4=O)C5=O)CC3)c2)nc1C(=O)O[C@@H](C(=O)Nc1ccc(F)cc1)c1ccccc1 (stereo partly drawn) [TDH-191, (R)-2-((4-fluorophenyl)amino)-2-oxo-1-phenylethyl 3-amino-6-(1-(1-(2-(2-(2-(2-((2-(2,6-dioxopiperidin-3-yl)-1,3-dioxoisoindolin-5-yl)amino)acetamido)ethoxy)ethoxy)acetyl)piperidin-4-yl)-1H-pyrazol-4-yl)pyrazine-2-carboxylate] | 44.99 | 5.25 | 8.31 | 77.85 | 49.93
Nc1ncc(-c2cnn(C3CCN(C(=O)COCCOCCNC(=O)C4CN(c5ccc6c(c5)C(=O)N(C5CCC(=O)NC5=O)C6=O)C4)CC3)c2)nc1C(=O)O[C@@H](C(=O)Nc1ccc(F)cc1)c1ccccc1 (stereo partly drawn) [TDH-193, (R)-2-((4-fluorophenyl)amino)-2-oxo-1-phenylethyl 3-amino-6-(1-(1-(2-(2-(2-(1-(2-(2,6-dioxopiperidin-3-yl)-1,3-dioxoisoindolin-5-yl)azetidine-3-carboxamido)ethoxy)ethoxy)acetyl)piperidin-4-yl)-1H-pyrazol-4-yl)pyrazine-2-carboxylate] |  | 11.22 | 8.21 | 43.97 | 40.55

Source: US20240252488A1 (KOREA RESEARCH INSTITUTE OF CHEMICAL TECHNOLOGY, priority 2020, published 2024)
